# Laboratory results taken from patent publication US12491170B2, “Stable treprostinil prodrugs” (United Therapeutics Corporation, priority 2020, dated 2025).
# Where two headings read alike, the source gives them in different places.
# Key:
# [1] = Stability in liver microsomes, human; conditions: for AUC: human
# [2] = Stability in cryopreserved hepatocytes, human; conditions: for AUC: human
# [3] = Stability in cryopreserved hepatocytes, rat; conditions: for AUC: rat
# [4] = rat
# [5] = Stability in liver microsomes, rat
# [6] = Stability in liver microsomes, dog
# [7] = Stability in cryopreserved hepatocytes, dog; conditions: for AUC: dog
# [8] = dog
Compound,Trep Concentration 0 min [1],Trep Concentration 10 min [1],Trep Concentration 20 min [1],Trep Concentration 30 min [1],Trep Concentration 60 min [1],AUC [1],Trep Concentration (μM) 0 min [2],Trep Concentration (μM) 15 min [2],Trep Concentration (μM) 30 min [2],Trep Concentration (μM) 60 min [2],Trep Concentration (μM) 120 min [2],AUC [2],Trep Concentration (μM) 0 min [3],Trep Concentration (μM) 15 min [3],Trep Concentration (μM) 30 min [3],Trep Concentration (μM) 60 min [3],Trep Concentration (μM) 120 min [3],AUC [3],AUC [4],Trep Concentration 0 min [5],further results
CCCCCC(CCC1C(O)CC2Cc3c(cccc3OCC(=O)O)CC21)OC(=O)c1cccc(O)c1 (stereo not shown) [LX],0.105 µM,0.14 µM,0.137 µM,0.126 µM,0.0865 µM,7.11 µmol·min/L,0 µM,0.0671 µM,0.102 µM,0.123 µM,0.137 µM,12.95 µmol·min/L,0 µM,0.021 µM,0.0343 µM,0.0477 µM,0.0634 µM,5.14 µmol·min/L,2.72 µmol·min/L,0.0226 µM,Trep Concentration 10 min [5]: 0.033 µM; Trep Concentration 20 min [5]: 0.0396 µM; Trep Concentration 30 min [5]: 0.0481 µM; Trep Concentration 60 min [5]: 0.0609 µM; Trep Concentration 0 min [6]: 0.0189 µM; Trep Concentration 10 min [6]: 0.0283 µM; Trep Concentration 20 min [6]: 0.0363 µM; Trep Concentration 30 min [6]: 0.044 µM; Trep Concentration 60 min [6]: 0.059 µM; Trep Concentration (μM) 0 min [7]: 0 µM; Trep Concentration (μM) 15 min [7]: 0.00428 µM; Trep Concentration (μM) 30 min [7]: 0.00492 µM; Trep Concentration (μM) 60 min [7]: 0.00784 µM; AUC [7]: 0.88 µmol·min/L; AUC [8]: 2.51 µmol·min/L
CCCCCC(CCC1C(O)CC2Cc3c(cccc3OCC(=O)O)CC21)OC(C)=O (stereo not shown) [XLIII],0.883 µM,0.681 µM,0.602 µM,0.513 µM,0.341 µM,32.62 µmol·min/L,0.00744 µM,0.573 µM,0.623 µM,0.54 µM,0.507 µM,62.18 µmol·min/L,0.00292 µM,0.161 µM,0.266 µM,0.397 µM,0.503 µM,41.38 µmol·min/L,8.02 µmol·min/L,0.035 µM,Trep Concentration 10 min [5]: 0.0741 µM; Trep Concentration 20 min [5]: 0.111 µM; Trep Concentration 30 min [5]: 0.145 µM; Trep Concentration 60 min [5]: 0.206 µM; Trep Concentration 0 min [6]: 0.964 µM; Trep Concentration 10 min [6]: 0.917 µM; Trep Concentration 20 min [6]: 0.899 µM; Trep Concentration 30 min [6]: 0.932 µM; Trep Concentration 60 min [6]: 0.873 µM; Trep Concentration (μM) 0 min [7]: 0.0381 µM; Trep Concentration (μM) 30 min [7]: 0.543 µM; Trep Concentration (μM) 60 min [7]: 0.446 µM; Trep Concentration (μM) 120 min [7]: 0.4 µM; AUC [7]: 53.99 µmol·min/L; AUC [8]: 54.72 µmol·min/L
